Results taken from ChEMBL document CHEMBL1909046, “DrugMatrix in vitro pharmacology data”.

Tests used:
[1] = DRUGMATRIX: ATPase, Na+/K+ enzyme inhibition (substrate: ATP); assay type: tissue-based, Sus scrofa, Heart; settings: Not Active = under 50% inhibition at 10 µM
[2] = DRUGMATRIX: Calcium Channel Type L, Dihydropyridine radioligand binding (ligand: [3H] Nitrendipine); assay type: cell membranes, Rattus norvegicus, Wistar, Cerebral cortex, Membrane; settings: Not Active = under 50% inhibition at 10 µM
Substance-P receptor = Substance-P receptor (Homo sapiens, UniProt P25103); assay type: cell membranes, CHO, Membrane; settings: cho; also: in other assays of this panel Not Active means under 50% inhibition at 10 µM
Substance-P receptor, sequence (P25103 whole entry): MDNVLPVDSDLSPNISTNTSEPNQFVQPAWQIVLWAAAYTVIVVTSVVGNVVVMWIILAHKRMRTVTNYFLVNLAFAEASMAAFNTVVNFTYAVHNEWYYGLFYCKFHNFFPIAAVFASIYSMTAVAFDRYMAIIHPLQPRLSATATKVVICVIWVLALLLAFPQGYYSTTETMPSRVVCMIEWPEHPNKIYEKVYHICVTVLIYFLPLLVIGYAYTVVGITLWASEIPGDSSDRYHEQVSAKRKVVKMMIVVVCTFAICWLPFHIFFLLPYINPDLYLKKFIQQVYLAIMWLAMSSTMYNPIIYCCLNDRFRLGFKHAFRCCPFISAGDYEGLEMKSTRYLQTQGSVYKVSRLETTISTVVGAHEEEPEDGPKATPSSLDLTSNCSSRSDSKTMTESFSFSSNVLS

[3] = molecular target: T1, C-X-C chemokine receptor type 2 (Homo sapiens, UniProt P25025); assay type: cell membranes, Membrane; settings: cho-k1; also: in other assays of this panel Not Active means under 50% inhibition at 10 µM
T1 sequence (P25025 whole entry): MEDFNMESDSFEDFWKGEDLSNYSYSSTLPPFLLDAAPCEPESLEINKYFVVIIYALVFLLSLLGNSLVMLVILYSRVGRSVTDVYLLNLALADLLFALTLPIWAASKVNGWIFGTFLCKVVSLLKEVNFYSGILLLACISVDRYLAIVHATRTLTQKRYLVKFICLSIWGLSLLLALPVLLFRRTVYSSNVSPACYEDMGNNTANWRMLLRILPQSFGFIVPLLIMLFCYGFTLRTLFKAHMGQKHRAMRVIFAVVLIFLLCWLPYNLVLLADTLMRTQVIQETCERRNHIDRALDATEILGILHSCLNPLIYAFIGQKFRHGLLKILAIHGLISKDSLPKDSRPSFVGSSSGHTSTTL

[4] = DRUGMATRIX: Interleukin IL-1 radioligand binding (ligand: [125I] interleukin 1beta); assay type: cell membranes, Membrane; settings: nih3t3; Not Active = under 50% inhibition at 10 µM
[5] = DRUGMATRIX: Leukotriene, BLT (LTB4) radioligand binding (ligand: [3H]LTB4); assay type: cell membranes, Membrane; settings: u-937; Not Active = under 50% inhibition at 10 µM
[6] = molecular target: T2, Amine oxidase [flavin-containing] A (Homo sapiens, UniProt P21397); experiment: DRUGMATRIX: Monoamine Oxidase MAO-A enzyme inhibition (substrate: Kynuramine); parameters: species or system BTI-TN-5B1-4; settings: bti-tn-5b1-4; Not Active = under 50% inhibition at 10 µM
T2 sequence (P21397 whole entry): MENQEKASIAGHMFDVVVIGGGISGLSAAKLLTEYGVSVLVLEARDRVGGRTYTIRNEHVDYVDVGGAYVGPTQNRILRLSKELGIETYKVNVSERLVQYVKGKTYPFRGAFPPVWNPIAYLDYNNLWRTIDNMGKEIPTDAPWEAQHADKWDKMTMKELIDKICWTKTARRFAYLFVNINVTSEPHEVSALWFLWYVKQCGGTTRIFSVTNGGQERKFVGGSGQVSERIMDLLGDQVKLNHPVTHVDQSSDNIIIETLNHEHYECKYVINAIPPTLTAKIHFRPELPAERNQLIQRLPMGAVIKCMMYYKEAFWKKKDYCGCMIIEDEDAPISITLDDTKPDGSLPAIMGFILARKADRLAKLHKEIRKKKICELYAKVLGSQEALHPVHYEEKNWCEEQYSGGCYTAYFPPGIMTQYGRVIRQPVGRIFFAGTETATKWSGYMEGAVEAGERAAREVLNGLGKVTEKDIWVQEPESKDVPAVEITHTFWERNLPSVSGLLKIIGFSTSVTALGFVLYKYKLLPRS

[7] = molecular target: Delta-type opioid receptor (Homo sapiens, UniProt P41143); assay type: cell membranes, HEK293, Membrane; settings: hek293; also: in other assays of this panel Not Active means under 50% inhibition at 10 µM
Delta-type opioid receptor, sequence (P41143 whole entry): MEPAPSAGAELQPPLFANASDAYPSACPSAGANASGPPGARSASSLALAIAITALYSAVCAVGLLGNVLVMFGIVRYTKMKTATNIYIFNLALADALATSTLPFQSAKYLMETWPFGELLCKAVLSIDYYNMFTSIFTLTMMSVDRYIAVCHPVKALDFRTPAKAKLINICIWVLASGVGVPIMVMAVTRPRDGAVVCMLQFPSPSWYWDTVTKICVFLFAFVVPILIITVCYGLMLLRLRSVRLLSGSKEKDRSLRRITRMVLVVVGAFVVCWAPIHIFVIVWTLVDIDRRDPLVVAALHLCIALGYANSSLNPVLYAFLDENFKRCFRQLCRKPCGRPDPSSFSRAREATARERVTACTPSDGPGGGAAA

[8] = molecular target: Kappa-type opioid receptor (Homo sapiens, UniProt P41145); experiment: DRUGMATRIX: Opiate kappa (OP2, KOP) radioligand binding (ligand: [3H] Diprenorphine); assay type: cell membranes, HEK293, Membrane; settings: hek293; Not Active = under 50% inhibition at 10 µM
Kappa-type opioid receptor, sequence (P41145 whole entry): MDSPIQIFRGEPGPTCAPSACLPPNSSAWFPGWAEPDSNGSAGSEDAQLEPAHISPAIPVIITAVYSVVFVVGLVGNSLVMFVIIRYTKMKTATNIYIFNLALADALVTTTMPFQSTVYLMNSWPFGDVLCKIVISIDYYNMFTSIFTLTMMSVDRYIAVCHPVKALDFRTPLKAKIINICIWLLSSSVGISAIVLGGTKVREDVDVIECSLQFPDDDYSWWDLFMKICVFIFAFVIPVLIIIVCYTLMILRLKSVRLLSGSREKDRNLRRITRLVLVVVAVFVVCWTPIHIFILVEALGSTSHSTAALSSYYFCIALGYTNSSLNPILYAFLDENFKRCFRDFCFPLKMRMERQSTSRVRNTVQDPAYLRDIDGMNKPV

[9] = DRUGMATRIX: Phosphodiesterase PDE3 enzyme inhibition (substrate: [3H]cAMP + cAMP); assay type: tissue-based, Homo sapiens; settings: platelet; Not Active = under 50% inhibition at 10 µM
[10] = DRUGMATRIX: Phosphodiesterase PDE4 enzyme inhibition (substrate: [3H]cAMP + cAMP); settings: u-937; Not Active = under 50% inhibition at 10 µM
Adenosine receptor A2a = Adenosine receptor A2a (Homo sapiens, UniProt P29274); experiment: DRUGMATRIX: Adenosine A2A radioligand binding (ligand: […]); assay type: cell membranes, HEK293, Membrane; settings: hek293; Not Active = under 50% inhibition at 10 µM
Adenosine receptor A2a, sequence (P29274 whole entry): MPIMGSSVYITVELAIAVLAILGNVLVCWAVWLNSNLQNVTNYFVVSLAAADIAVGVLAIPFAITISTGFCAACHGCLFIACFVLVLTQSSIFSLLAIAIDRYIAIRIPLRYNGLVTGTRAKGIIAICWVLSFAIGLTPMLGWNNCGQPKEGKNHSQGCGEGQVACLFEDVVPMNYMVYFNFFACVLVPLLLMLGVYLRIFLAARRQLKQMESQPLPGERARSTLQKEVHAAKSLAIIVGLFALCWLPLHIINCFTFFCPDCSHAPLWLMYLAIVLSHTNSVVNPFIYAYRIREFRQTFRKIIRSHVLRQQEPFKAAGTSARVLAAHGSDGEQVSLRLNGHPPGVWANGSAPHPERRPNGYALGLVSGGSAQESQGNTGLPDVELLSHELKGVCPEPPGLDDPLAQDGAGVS

Glucocorticoid receptor = molecular target: T3, Glucocorticoid receptor (Homo sapiens, UniProt P04150); settings: hela s3; also: in other assays of this panel Not Active means under 50% inhibition at 10 µM
T3 sequence (P04150 whole entry): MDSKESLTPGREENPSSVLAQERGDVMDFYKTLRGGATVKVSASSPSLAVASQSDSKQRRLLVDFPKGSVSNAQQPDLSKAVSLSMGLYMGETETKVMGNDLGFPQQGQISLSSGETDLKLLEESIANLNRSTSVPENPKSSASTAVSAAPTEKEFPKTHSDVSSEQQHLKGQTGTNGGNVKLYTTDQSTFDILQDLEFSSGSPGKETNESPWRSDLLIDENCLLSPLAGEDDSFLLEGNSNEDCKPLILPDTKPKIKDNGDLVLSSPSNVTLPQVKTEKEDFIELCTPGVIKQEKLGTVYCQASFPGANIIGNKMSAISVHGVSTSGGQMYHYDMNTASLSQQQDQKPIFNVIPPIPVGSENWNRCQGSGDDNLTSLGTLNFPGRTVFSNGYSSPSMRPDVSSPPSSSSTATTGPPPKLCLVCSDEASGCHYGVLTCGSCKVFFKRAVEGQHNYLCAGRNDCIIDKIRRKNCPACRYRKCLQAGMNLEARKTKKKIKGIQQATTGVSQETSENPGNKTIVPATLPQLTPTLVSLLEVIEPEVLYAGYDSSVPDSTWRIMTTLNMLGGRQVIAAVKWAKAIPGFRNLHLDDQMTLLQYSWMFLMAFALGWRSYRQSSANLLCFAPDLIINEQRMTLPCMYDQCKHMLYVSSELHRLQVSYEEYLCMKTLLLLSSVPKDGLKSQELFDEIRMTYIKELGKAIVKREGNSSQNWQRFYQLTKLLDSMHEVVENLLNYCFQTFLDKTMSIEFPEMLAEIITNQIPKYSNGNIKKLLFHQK

CC(=O)CCCCn1c(=O)c2c(ncn2C)n(C)c1=O [PENTOXIFYLLINE]
Not Active: IC50 [1] | Ki [1] | IC50 [2] | Ki [2] | IC50 (Substance-P receptor) | IC50 [3] | IC50 [4] | Ki [4] | IC50 [5] | Ki [5] | IC50 [6] | IC50 [7] | IC50 [8] | IC50 [9] | Ki [9] | IC50 [10] | Ki [10] | IC50 (Adenosine receptor A2a) | IC50 (Glucocorticoid receptor)

O=C1NC(=O)C(c2ccccc2)(c2ccccc2)N1 [PHENYTOIN]
Not Active: IC50 [1] | Ki [1] | IC50 [2] | Ki [2] | IC50 (Substance-P receptor) | IC50 [3] | IC50 [4] | Ki [4] | IC50 [5] | Ki [5] | IC50 [6] | IC50 [7] | IC50 [8] | IC50 [9] | Ki [9] | IC50 [10] | Ki [10] | IC50 (Adenosine receptor A2a) | IC50 (Glucocorticoid receptor)

CNC(=O)Oc1ccc2c(c1)[C@]1(C)CCN(C)[C@@H]1N2C [PHYSOSTIGMINE]
Not Active: IC50 [1] | Ki [1] | IC50 [2] | Ki [2] | IC50 (Substance-P receptor) | IC50 [3] | IC50 [4] | Ki [4] | IC50 [5] | Ki [5] | IC50 [6] | IC50 [7] | IC50 [8] | IC50 [9] | Ki [9] | IC50 [10] | Ki [10] | IC50 (Adenosine receptor A2a) | IC50 (Glucocorticoid receptor)

CN1C(C(=O)Nc2ccccn2)=C(O)c2ccccc2S1(=O)=O [PIROXICAM]
Not Active: IC50 [1] | Ki [1] | IC50 [2] | Ki [2] | IC50 (Substance-P receptor) | IC50 [3] | IC50 [4] | Ki [4] | IC50 [5] | Ki [5] | IC50 [6] | IC50 [7] | IC50 [8] | IC50 [9] | Ki [9] | IC50 [10] | Ki [10] | IC50 (Adenosine receptor A2a) | IC50 (Glucocorticoid receptor)

CCC1(c2ccccc2)C(=O)NCNC1=O [PRIMIDONE]
Not Active: IC50 [1] | Ki [1] | IC50 [2] | Ki [2] | IC50 (Substance-P receptor) | IC50 [3] | IC50 [4] | Ki [4] | IC50 [5] | Ki [5] | IC50 [6] | IC50 [7] | IC50 [8] | IC50 [9] | Ki [9] | IC50 [10] | Ki [10] | IC50 (Adenosine receptor A2a) | IC50 (Glucocorticoid receptor)

COc1ccc(CN(CCN(C)C)c2ccccn2)cc1 [PYRILAMINE]
Not Active: IC50 [1] | Ki [1] | IC50 [2] | Ki [2] | IC50 (Substance-P receptor) | IC50 [3] | IC50 [4] | Ki [4] | IC50 [5] | Ki [5] | IC50 [6] | IC50 [7] | IC50 [8] | IC50 [9] | Ki [9] | IC50 [10] | Ki [10] | IC50 (Adenosine receptor A2a) | IC50 (Glucocorticoid receptor)
